{"source": "paper PMC9428149", "about": "“Tackling recalcitrant Pseudomonas aeruginosa infections in critical illness via anti-virulence monotherapy” (Nature Communications, 2022)", "tested_on": "MvfR-regulated small molecules in PA14", "test": "Production of HAQs, 2-AA, DHQ and AA in PA14 cultures (LC-MS)", "conditions": "for 2-AA / DHQ / HQNO / PQS / HHQ: Figure 5a; for 2-AA / DHQ / HQNO / PQS / HHQ / AA: replicates; for AA: Figure 5b; for activity at 50 µM / pIC50 / inhibition at 50 µM: Pseudomonas aeruginosa", "note": "pIC50: −log10 of the molar value. “And” between values parts separate entries of the source, which are not always exact repeats. Identical values can stand only once. Like-named read-outs stand apart in the source and are kept apart here.", "method": "The HAQs HHQ, PQS, HQNO, and non-HAQs: 2-AA and DHQ produced by PA14 cells were quantified in the presence of NAMs. The overnight grown starter culture was diluted 1:100 in 5 mL LB media in a glass tube and was allowed to grow in the presence (50 µM) or absence of compound at 37 °C and 200 rpm in an incubator shaker until OD600 was 3. Bacterial cultures were subsequently mixed 1:1 (400 μL: 400 μL) with 100% methanol containing 20 ppm (20 μg mL^−1) of tetradeutero-PQS (PQS-D4) and 10 ppm of tetradeutero-HHQ (HHQ-D4) in a 1.5 mL Eppendorf tube. The mixture was vortexed for 5 seconds and spun down for 5 minutes at 12,000 x g. A 700 μL aliquot of the supernatant was removed and stored in glass vials at −20 °C until further liquid chromatography-mass spectrophotometry (LC/MS) analysis as previously described in Lepine et al., 2003[66]. LC/MC analysis was performed using a Micromass Quattro II triple quadrupole mass spectrometer (Micromass Canada, Pointe-Claire, Canada) in positive electrospray ionization mode, interfaced to an HP1100 HPLC equipped with a 4.5 × 150 mm reverse-phase C8 column.\nGraphPad Prism 9.2.0 software was used to plot the IC50 curve against the percent inhibition of these small molecules’ production at each concentration."}
{"smiles": "N#Cc1ccc(NC(=O)C(F)C(=O)Nc2ccc(Oc3ccccc3)cc2)cc1", "note": "(centres unmarked) [D88]", "values": [{"measurement": "2-AA", "setting": "Compound 1.56e-6 M", "result": "57.52 and 53.71 and 61.03"}, {"measurement": "DHQ", "setting": "Compound 1.56e-6 M", "result": "42.56 and 47.41 and 47.02"}, {"measurement": "HQNO", "setting": "Compound 1.56e-6 M", "result": "65.26 and 66.09 and 66.02"}, {"measurement": "PQS", "setting": "Compound 1.56e-6 M", "result": "20.92 and 18.95 and 23.15"}, {"measurement": "2-AA", "setting": "Compound 3.13e-6 M", "result": "77.80 and 71.94 and 73.15"}, {"measurement": "DHQ", "setting": "Compound 3.13e-6 M", "result": "23.18 and 25.25 and 33.98"}, {"measurement": "HHQ", "setting": "Compound 3.13e-6 M", "result": "18.71 and 27.16 and 24.99"}, {"measurement": "HQNO", "setting": "Compound 3.13e-6 M", "result": "83.76 and 83.46 and 82.00"}, {"measurement": "PQS", "setting": "Compound 3.13e-6 M", "result": "64.68 and 63.03 and 59.62"}, {"measurement": "2-AA", "setting": "Compound 6.25e-6 M", "result": "94.51 and 93.72 and 94.23"}, {"measurement": "DHQ", "setting": "Compound 6.25e-6 M", "result": "82.36 and 85.39 and 83.09"}, {"measurement": "HHQ", "setting": "Compound 6.25e-6 M", "result": "97.83 and 98.02 and 97.82"}, {"measurement": "HQNO", "setting": "Compound 6.25e-6 M", "result": "95.97 and 95.46 and 95.76"}, {"measurement": "PQS", "setting": "Compound 6.25e-6 M", "result": "95.61 and 95.53 and 95.05"}, {"measurement": "2-AA", "setting": "Compound 1.25e-5 M", "result": "96.17 and 96.56 and 95.88"}, {"measurement": "DHQ", "setting": "Compound 1.25e-5 M", "result": "89.15 and 89.66 and 90.01"}, {"measurement": "HHQ", "setting": "Compound 1.25e-5 M", "result": "98.67 and 99.17 and 97.08"}, {"measurement": "HQNO", "setting": "Compound 1.25e-5 M", "result": "97.36 and 97.63 and 97.60"}, {"measurement": "PQS", "setting": "Compound 1.25e-5 M", "result": "98.30 and 97.73 and 97.38"}, {"measurement": "2-AA", "setting": "Compound 2.5e-5 M", "result": "96.54 (2×) and 95.16"}, {"measurement": "DHQ", "setting": "Compound 2.5e-5 M", "result": "90.35 and 91.27 and 89.56"}, {"measurement": "HHQ", "setting": "Compound 2.5e-5 M", "result": "99.13 (2×) and 96.58"}, {"measurement": "HQNO", "setting": "Compound 2.5e-5 M", "result": "97.58 and 97.87 and 97.81"}, {"measurement": "PQS", "setting": "Compound 2.5e-5 M", "result": "98.11 and 97.67 and 97.24"}, {"measurement": "2-AA", "setting": "Compound 5e-5 M", "result": "97.65 and 97.17 and 97.36"}, {"measurement": "DHQ", "setting": "Compound 5e-5 M", "result": "92.04 and 92.63 and 92.02"}, {"measurement": "HHQ", "setting": "Compound 5e-5 M", "result": "98.82 and 99.10 and 99.16"}, {"measurement": "HQNO", "setting": "Compound 5e-5 M", "result": "98.11 and 98.35 and 97.80"}, {"measurement": "PQS", "setting": "Compound 5e-5 M", "result": "97.51 and 97.36 and 96.79"}, {"measurement": "AA", "setting": "Compound 1.25E-05 M", "result": "599.608 and 615.624 and 726.139"}, {"measurement": "AA", "setting": "Compound 1.56E-06 M", "result": "43.3838 and 42.5844 and 52.2801"}, {"measurement": "AA", "setting": "Compound 1.95E-07 M", "result": "66.4944 and 66.9002 and 61.8554"}, {"measurement": "AA", "setting": "Compound 2.50E-05 M", "result": "648.607 and 690.995 and 748.985"}, {"measurement": "AA", "setting": "Compound 3.13E-06 M", "result": "37.3675 and 38.4724 and 34.81"}, {"measurement": "AA", "setting": "Compound 4.88E-08 M", "result": "60.2138 and 71.5203 and 96.3706"}, {"measurement": "AA", "setting": "Compound 5.00E-05 M", "result": "538.963 and 599.424 and 657.09"}, {"measurement": "AA", "setting": "Compound 6.25E-06 M", "result": "537.56 and 609.034 and 598.829"}, {"measurement": "AA", "setting": "Compound 7.81E-07 M", "result": "70.2961 and 63.8933 and 86.4668"}, {"measurement": "AA", "setting": "Compound 9.77E-08 M", "result": "72.0385 and 90.409 and 103.511"}, {"measurement": "activity at 50 µM", "setting": "PA14, read-out: % Production 2-AA", "result": 7, "unit": "%"}, {"measurement": "activity at 50 µM", "setting": "PA14, read-out: % Production AA", "result": 832, "unit": "%"}, {"measurement": "activity at 50 µM", "setting": "PA14, read-out: % Production DHQ", "result": 7, "unit": "%"}, {"measurement": "activity at 50 µM", "setting": "PA14, read-out: % Production HHQ", "result": 1, "unit": "%"}, {"measurement": "activity at 50 µM", "setting": "PA14, read-out: % Production HQNO", "result": 14, "unit": "%"}, {"measurement": "activity at 50 µM", "setting": "PA14, read-out: % Production PQS", "result": 4, "unit": "%"}, {"measurement": "pIC50", "setting": "PA14, read-out: AA, dose-dependent production (IC50 curve)", "result": 5.33}, {"measurement": "inhibition at 50 µM", "setting": "PA14, read-out: HHQ production inhibition", "result": "89 to 99", "unit": "%"}, {"measurement": "inhibition at 50 µM", "setting": "PA14, read-out: HQNO production inhibition", "result": "40 to 92", "unit": "%"}, {"measurement": "pIC50", "setting": "PA14, read-out: IC50 against 2-AA production", "result": 5.82}, {"measurement": "pIC50", "setting": "PA14, read-out: IC50 against DHQ production", "result": 5.38}, {"measurement": "pIC50", "setting": "PA14, read-out: IC50 against HHQ production", "result": 5.51}, {"measurement": "pIC50", "setting": "PA14, read-out: IC50 against HQNO production", "result": 5.89}, {"measurement": "pIC50", "setting": "PA14, read-out: IC50 against PQS production", "result": 5.68}, {"measurement": "inhibition at 50 µM", "setting": "PA14, read-out: PQS production inhibition", "result": "76 to 97", "unit": "%"}, {"measurement": "inhibition at 50 µM", "setting": "PA14, read-out: inhibition of 2-AA production", "result": "82 to 95", "unit": "%"}, {"measurement": "inhibition at 50 µM", "setting": "PA14, read-out: inhibition of DHQ production", "result": "82 to 96", "unit": "%"}]}
